Values quoted from earlier work, collected in patent US20050266077A1, “Resorbable matrices with coatings for delivery of bioactive compounds” (Royal Biomedical, Inc., priority 2002, published 2005).

Settings: exothermic reaction, matrix temperatures as high as 100° C

polymyxin
inactivation of antibiotic: inactivated
